These results are taken from article doi:10.1101/2022.09.09.507210v3, “The class XIV myosin of Toxoplasma gondii, TgMyoA, is druggable in an animal model of infection” (biorxiv, 2023).

The structures appear in SMILES notation. Like-named read-outs stand apart in the source and are kept apart here.

Series [1] deals with T1, Toxoplasma gondii RH (tdTomato).
T1 construct: RH
Kind of series: microbe, parasite or virus in culture. Also noted: species or system HFF (host); tdTomato parasite growth in HFF cells, daily fluorescence, IC50 at day 5-6. To be noted: HFF. The method, then:
557 558 Parasite growth assays. Fluorescence-based growth assay. To quantify growth in the presence of compound(s), 1x10^4 559 tachyzoites were preincubated with compound for 5 minutes prior to inoculation onto 560 3 wells of a black sided, clear bottom 384-well plate containing a confluent monolayer of HFF cells. For 561 compound assays, parasites expressing tdTomato were incubated with vehicle or serial dilutions of 562 compound, maintaining a constant DMSO concentration (0.2% v/v). The fluorescent signal was 563 quantified daily for 7 days (ex 530/25, em 590/35) on a Biotek synergy 2 plate reader. The IC50 of growth 564 inhibitory compounds was quantified using GraphPad Prism. Plaque assay. 10, 100, 200, or 500 565 parasites were used to inoculate a confluent monolayer of HFF cells in a 12-well plate and incubated for 566 7 days at 37 °C, 5% CO2. Infected monolayers were then washed with phosphate-buffered saline, fixed 567 with 100% EtOH for five minutes, stained with 5X crystal violet solution (12.5 g crystal violet, 125 ml 568 100% EtOH, 500 ml 1% w/v ammonium oxalate) for 5 minutes, washed with PBS, and allowed to dry.  Figure 3: Preliminary structure-activity relationship (SAR) analysis. […] The table summarizes the activity of each of the compounds in assays measuring recombinant TgMyoA ATPase activity, parasite growth and mammalian cell toxicity; the data on which the table is based are shown in Suppl. Figures 3-5. ATPase assay data correspond to relative luminescence units × 10^−6 (mean from 3 independent replicates +/-SEM) in the presence of 20 μM compound (Suppl. Figure 3). […] Growth assay data correspond to calculated IC50 and 95% confidence interval from a 5-6 day growth assay (Suppl. Figure 4). […] Toxicity assay entries summarize the results from 72-hour CellTox™ Green toxicity and CellTiter-Glo® viability assays on both human foreskin fibroblasts and HepG2 cells. Thresholds for mild and moderate toxicity and loss of viability compared to vehicle (DMSO) controls are indicated by the colored bars on the right hand side of Suppl. […] Fluorescence was measured daily to quantify parasite growth, in the continued presence of compound, over the next 7 days. RFU = relative fluorescence units. The data shown are the mean ± SEM from two independent biological replicates, each consisting of 3 technical replicates at all time points. […] See Figure 5A for a repeat of these growth assays and IC50 calculations. […] Cell viability/growth was measured using Promega CellTiter-Glo® (top panel) and toxicity was measured using Promega CellTox™ green (bottom panel). 0.1% w/v NaN3 served as a positive control for cytotoxicity / growth inhibition. Results are plotted relative to the DMSO controls. Bars show the mean of three independent experiments ± SEM.

The nature of series [2]: in vitro. Details: species or system HFF. Conditions: human, hepg2 cells, read-out: HepG2 cells 80 uM. The method, then:
(§1) The table summarizes the activity of each of the compounds in assays measuring recombinant TgMyoA ATPase activity, parasite growth and mammalian cell toxicity; the data on which the table is based are shown in Suppl. Figures 3-5. ATPase assay data correspond to relative luminescence units × 10^−6 (mean from 3 independent replicates +/-SEM) in the presence of 20 μM compound (Suppl. Figure 3). […] Growth assay data correspond to calculated IC50 and 95% confidence interval from a 5-6 day growth assay (Suppl. Figure 4). […] Toxicity assay entries summarize the results from 72-hour CellTox™ Green toxicity and CellTiter-Glo® viability assays on both human foreskin fibroblasts and HepG2 cells. Thresholds for mild and moderate toxicity and loss of viability compared to vehicle (DMSO) controls are indicated by the colored bars on the right hand side of Suppl. […] Fluorescence was measured daily to quantify parasite growth, in the continued presence of compound, over the next 7 days. RFU = relative fluorescence units. The data shown are the mean ± SEM from two independent biological replicates, each consisting of 3 technical replicates at all time points. […] See Figure 5A for a repeat of these growth assays and IC50 calculations. […] Cell viability/growth was measured using Promega CellTiter-Glo® (top panel) and toxicity was measured using Promega CellTox™ green (bottom panel). 0.1% w/v NaN3 served as a positive control for cytotoxicity / growth inhibition. Results are plotted relative to the DMSO controls. Bars show the mean of three independent experiments ± SEM.

The nature of series [3]: in vitro. Also noted: species or system HepG2. To be noted: human, hff cells, read-out: HFF cells 80 uM. As for the experimental part:
as §1

Series [4] addresses T2, rabbit fast skeletal muscle myosin.
T2 construct: gene MYH4; native rabbit fast skeletal myofibrils, full length, with native light chains and thin filaments
Description: myofibril ATPase assay. Format: biochemical, Oryctolagus cuniculus. Conditions: 75% calcium activation (pCa75); up to 40 μM tested. From the text: myofibril ATPase assay on rabbit fast skeletal muscle myosin

As for `c1ccc(C2(NCc3c[nH]nc3-c3cccs3)CC2)cc1` [VEST5, 1-phenyl-N-((3-(thiophen-2-yl)-1H-pyrazol-4-yl)methyl)cyclopropan-1-amine], the IC50 – broadly, the concentration needed to halve the response being measured – in series [1] (read-out: Parasite Growth IC50) was 9.9 µM. The CC50 at 72 h in “in vitro [2]” and in “in vitro [3]” was more than 80 µM each time.

Regarding `COc1ccc(C2(NCc3c[nH]nc3-c3cccs3)CC2)cc1` [KNX-002, 1-(4-methoxyphenyl)-N-((3-(thiophen-2-yl)-1H-pyrazol-4-yl)methyl)cyclopropan-1-amine], the values for the 50% inhibitory concentration (IC50) in series [4], in series [1] (read-out: IC50 (D5)) and in series [1] (read-out: Parasite Growth IC50) were more than 39.2 µM, 14.9 µM and 19.7 µM, respectively. Also, the CC50 at 72 h in “in vitro [2]” and in “in vitro [3]” was more than 80 µM throughout.

Consider `COc1ccc([C@@H](C)NCc2c[nH]nc2-c2cccs2)cc1` [VEST14, (R)-1-(4-methoxyphenyl)-N-((3-(thiophen-2-yl)-1H-pyrazol-4-yl)methyl)ethan-1-amine], for which the half-maximal inhibitory concentration (IC50) in series [1] (read-out: Parasite Growth IC50) came to 44.3 µM. Further, the CC50 at 72 h in “in vitro [2]” was more than 80 µM.

As to `COc1ccc(C2(NCc3ccoc3)CC2)cc1` [VEST9, N-(furan-3-ylmethyl)-1-(4-methoxyphenyl)cyclopropan-1-amine], the IC50 in series [1] (read-out: Parasite Growth IC50) is more than 80 µM. The CC50 at 72 h in “in vitro [2]” and in “in vitro [3]” was more than 80 µM each time.

As for `COc1ccc(C2(NCc3cncs3)CC2)cc1` [VEST8, 1-(4-methoxyphenyl)-N-(thiazol-5-ylmethyl)cyclopropan-1-amine], in series [1] (read-out: Parasite Growth IC50), the 50% inhibitory concentration (IC50) was more than 80 µM. Besides, the CC50 at 72 h in “in vitro [2]” and in “in vitro [3]” was more than 80 µM each time.

Consider `Clc1ccc(C2(NCc3c[nH]nc3-c3cccs3)CC2)cc1Cl` [VEST4, 1-(3,4-dichlorophenyl)-N-((3-(thiophen-2-yl)-1H-pyrazol-4-yl)methyl)cyclopropan-1-amine], for which the concentration for half-maximal inhibition (IC50) in series [1] (read-out: Parasite Growth IC50) is 31 µM. For the same molecule, the CC50 at 72 h in the series “in vitro [2]” and in “in vitro [3]” was more than 80 µM in each case.

On to `Clc1ccc(C2(NCc3c[nH]nc3-c3cccs3)CC2)cc1` [VEST2, 1-(4-chlorophenyl)-N-((3-(thiophen-2-yl)-1H-pyrazol-4-yl)methyl)cyclopropan-1-amine], for which the IC50 in series [1] (read-out: Parasite Growth IC50) turned out to be 15.5 µM.

Consider `c1ccc(CNCc2c[nH]nc2-c2cccs2)cc1` [VEST12, N-benzyl-1-(3-(thiophen-2-yl)-1H-pyrazol-4-yl)methanamine], for which the IC50 in series [1] (read-out: Parasite Growth IC50) is more than 80 µM. The CC50 at 72 h in “in vitro [2]” was more than 80 µM.

Take `CC(C)(NCc1c[nH]nc1-c1cccs1)c1ccccc1` [VEST13, 2-phenyl-N-((3-(thiophen-2-yl)-1H-pyrazol-4-yl)methyl)propan-2-amine]: the IC50 in series [1] (read-out: Parasite Growth IC50) was determined as 27.1 µM. In addition, the CC50 at 72 h in “in vitro [2]” is more than 80 µM.

With `COc1ccc(C2(NCc3c[nH]nc3-c3ccccc3)CC2)cc1` [VEST6, 1-(4-methoxyphenyl)-N-((3-phenyl-1H-pyrazol-4-yl)methyl)cyclopropan-1-amine], the IC50 in series [1] (read-out: Parasite Growth IC50) came to 24.9 µM. Further, the CC50 at 72 h in “in vitro [2]” and in the series “in vitro [3]” was more than 80 µM in each case.

Turning to `COc1ccc(C2(NCc3ccccc3)CC2)cc1` [VEST7, N-benzyl-1-(4-methoxyphenyl)cyclopropan-1-amine], in series [1] (read-out: Parasite Growth IC50), the IC50 was more than 80 µM. In addition, the CC50 at 72 h in “in vitro [2]” and in “in vitro [3]” was more than 80 µM throughout.

Take `COc1ccc(CNCc2c[nH]nc2-c2cccs2)cc1` [VEST11, N-(4-methoxybenzyl)-1-(3-(thiophen-2-yl)-1H-pyrazol-4-yl)methanamine]: the IC50 in series [1] (read-out: Parasite Growth IC50) is more than 80 µM. The CC50 at 72 h in the series “in vitro [2]” and in “in vitro [3]” was more than 80 µM in each case.

With `Cc1ccc(C2(NCc3c[nH]nc3-c3cccs3)CC2)cc1` [VEST3, N-((3-(thiophen-2-yl)-1H-pyrazol-4-yl)methyl)-1-(p-tolyl)cyclopropan-1-amine], in series [1] (read-out: Parasite Growth IC50), the IC50 stood at 25.4 µM.

For the molecule `c1csc(-c2n[nH]cc2CNC2CC2)c1` [VEST1, N-((3-(thiophen-2-yl)-1H-pyrazol-4-yl)methyl)cyclopropanamine], in series [1] (read-out: Parasite Growth IC50), the IC50 was more than 80 µM. In addition, the CC50 at 72 h in the series “in vitro [2]” and in “in vitro [3]” was more than 80 µM each time.

For `COc1ccc([C@H](C)NCc2c[nH]nc2-c2cccs2)cc1` [VEST15, (S)-1-(4-methoxyphenyl)-N-((3-(thiophen-2-yl)-1H-pyrazol-4-yl)methyl)ethan-1-amine], the IC50 in series [1] (read-out: Parasite Growth IC50) was 39.7 µM. For the same molecule, the CC50 at 72 h in the series “in vitro [2]” was more than 80 µM.

For the molecule `COc1ccc(C2(NCc3cc[nH]c3)CC2)cc1` [VEST10, N-((1H-pyrrol-3-yl)methyl)-1-(4-methoxyphenyl)cyclopropan-1-amine], the half-inhibitory concentration (IC50) in series [1] (read-out: Parasite Growth IC50) was 21.7 µM. For the same molecule, the CC50 at 72 h in “in vitro [2]” and in “in vitro [3]” was more than 80 µM throughout.
